# Measured values taken from PMC7844276, “Multi-functionality of a tryptophan residue conserved in substrate-binding groove of GH19 chitinases” (Scientific Reports, 2021).
# Experiments:
# Format in all cases: binding
# BcChi-A [1] = target: T1, BcChi-A (Gemmabryum coronatum, UniProt A9ZSX9, W126F); experiment: 1H-15N HSQC NMR titration, Asn20 chemical shift; details: 50 mM sodium acetate pH 5.0, 90% H2O/10% D2O, 300 K; 0.2 mM 15N protein
# T1 construct: gene bcchiA; recombinant, pET-22b in E. coli BL21(DE3); purified from cell lysate by acid treatment, Q-Sepharose, Sephacryl S-100; no tag mentioned; 15N-labelled for NMR; catalytic domain, loopless GH19
# T1 sequence (A9ZSX9 entry or part of it W126F): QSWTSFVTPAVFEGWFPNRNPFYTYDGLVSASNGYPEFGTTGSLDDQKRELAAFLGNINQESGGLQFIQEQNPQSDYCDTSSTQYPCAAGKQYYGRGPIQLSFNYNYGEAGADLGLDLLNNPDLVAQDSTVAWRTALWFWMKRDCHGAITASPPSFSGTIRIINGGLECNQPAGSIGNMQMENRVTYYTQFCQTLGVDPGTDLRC
# Description: (§1) 1H-15N HSQC NMR titration, Asn20 chemical shift on BcChi-A
# BcChi-A [2] = target: T2, BcChi-A (Gemmabryum coronatum, UniProt A9ZSX9); experiment: 1H-15N HSQC NMR titration, Asn20 chemical shift; details: 50 mM sodium acetate pH 5.0, 90% H2O/10% D2O, 300 K; 0.2 mM 15N protein
# T2 construct: gene bcchiA; recombinant, pET-22b in E. coli BL21(DE3); purified from cell lysate by acid treatment, Q-Sepharose, Sephacryl S-100; no tag mentioned; 15N-labelled for NMR; catalytic domain, loopless GH19
# T2 sequence (A9ZSX9 entry or part of it): as the sequence (A9ZSX9 entry or part of it W126F) above, with F103W counted along it
# Description: as §1
# BcChi-A [3] = target: T3, BcChi-A (Gemmabryum coronatum, UniProt A9ZSX9, W126A); experiment: 1H-15N HSQC NMR titration, Asn20 chemical shift; details: 50 mM sodium acetate pH 5.0, 90% H2O/10% D2O, 300 K; 0.2 mM 15N protein
# T3 construct: gene bcchiA; recombinant, pET-22b in E. coli BL21(DE3); purified from cell lysate by acid treatment, Q-Sepharose, Sephacryl S-100; no tag mentioned; 15N-labelled for NMR; catalytic domain, loopless GH19
# T3 sequence (A9ZSX9 entry or part of it W126A): as the sequence (A9ZSX9 entry or part of it W126F) above, with F103A counted along it
# Description: as §1
# BcChi-A [4] = target: T4, BcChi-A (Gemmabryum coronatum, UniProt A9ZSX9, E84Q/W126F); experiment: 1H-15N HSQC NMR titration, Asn20 bound-state intensity (slow exchange); details: 50 mM sodium acetate pH 5.0, 90% H2O/10% D2O, 300 K; 0.2 mM 15N protein; catalytically inactive mutant
# T4 construct: gene bcchiA; recombinant, pET-22b in E. coli BL21(DE3); purified from cell lysate by acid treatment, Q-Sepharose, Sephacryl S-100; no tag mentioned; 15N-labelled for NMR; catalytic domain, loopless GH19
# T4 sequence (A9ZSX9 entry or part of it E84Q/W126F): as the sequence (A9ZSX9 entry or part of it W126F) above, with E61Q counted along it
# Description: (§2) 1H-15N HSQC NMR titration, Asn20 bound-state intensity (slow exchange) on BcChi-A
# BcChi-A [5] = target: T5, BcChi-A (Gemmabryum coronatum, UniProt A9ZSX9, E84Q); experiment: as above; details: 50 mM sodium acetate pH 5.0, 90% H2O/10% D2O, 300 K; 0.2 mM 15N protein; catalytically inactive mutant
# T5 construct: gene bcchiA; recombinant, pET-22b in E. coli BL21(DE3); purified from cell lysate by acid treatment, Q-Sepharose, Sephacryl S-100; no tag mentioned; 15N-labelled for NMR; catalytic domain, loopless GH19
# T5 sequence (A9ZSX9 entry or part of it E84Q): as the sequence (A9ZSX9 entry or part of it W126F) above, with E61Q, F103W counted along it
# Description: as §2
# BcChi-A [6] = target: T6, BcChi-A (Gemmabryum coronatum, UniProt A9ZSX9, E84Q/W126A); experiment: as above; details: 50 mM sodium acetate pH 5.0, 90% H2O/10% D2O, 300 K; 0.2 mM 15N protein; catalytically inactive mutant
# T6 construct: gene bcchiA; recombinant, pET-22b in E. coli BL21(DE3); purified from cell lysate by acid treatment, Q-Sepharose, Sephacryl S-100; no tag mentioned; 15N-labelled for NMR; catalytic domain, loopless GH19
# T6 sequence (A9ZSX9 entry or part of it E84Q/W126A): as the sequence (A9ZSX9 entry or part of it W126F) above, with E61Q, F103A counted along it
# Description: as §2
SMILES,Kd (BcChi-A [1]) [µM],Kd (BcChi-A [2]) [µM],Kd (BcChi-A [3]) [µM],Kd (BcChi-A [4]) [µM],Kd (BcChi-A [5]) [µM],Kd (BcChi-A [6]) [µM]
CC(=O)N[C@H]1[C@H](O[C@H]2[C@H](O)[C@@H](NC(C)=O)C(O)O[C@@H]2CO)O[C@H](CO)[C@@H](O)[C@@H]1O (stereo partly drawn) [(GlcNAc)2],22000,4200,24000,–,–,–
CC(=O)N[C@H]1[C@H](O[C@H]2[C@H](O)[C@@H](NC(C)=O)[C@H](O[C@H]3[C@H](O)[C@@H](NC(C)=O)C(O)O[C@@H]3CO)O[C@@H]2CO)O[C@H](CO)[C@@H](O[C@@H]2O[C@H](CO)[C@@H](O[C@@H]3O[C@H](CO)[C@@H](O[C@@H]4O[C@H](CO)[C@@H](O)[C@H](O)[C@H]4NC(C)=O)[C@H](O)[C@H]3NC(C)=O)[C@H](O)[C@H]2NC(C)=O)[C@@H]1O (stereo partly drawn) [(GlcNAc)6],–,–,–,1000,14,200
